# Measurements from patent US20020169101A1, “Treatment of sexual dysfunction” (priority 1999, published 2002).
# Columns and labels:
# [1] = system: female rat sexual proceptivity (NMB-inhibited); assay: Inhibition of female rat proceptivity by i.c.v. NMB and its antagonism; assay type: in vivo; conditions: progesterone 0.5 mg s.c. 4 h; NMB 100 ng i.c.v. 10 min before test in progesterone-treated rats; Compound (1) 15 mg/kg i.p. 1 h before NMB (FIG. 5)
# Protocol: Ovariectomised female rats (Sprague Dawley, obtained from Charles River, UK) were stereotaxically implanted (coordinates 0.89 mm behind Bregma, 1.3 mm lateral and 2.5 mm vertical) with stainless steel cannulae (6 mm long, O.D. 0.75 mm), held in place with dental cement. Animals were housed in groups of three and returned to a reversed lighting system of 12 h light:dark (lights off 5.00-17.00 h). Correct placement of the cannulae was assessed post-mortem. Rats were used for tests two weeks after ovariectomy (one week after cannulation). The experiments started at least 5 h into the dark period. Forty eight hours before tests, the animals were primed with 5 μg oestradiol benzoate (OB) (s.c, in corn oil) and adapted to the apparatus (in the absence of stimuli animals) for 10 min on 2 consecutive days prior testing. The 10 min test was carried out as previously described. The difference in the percentage of time spent investigating male minus female was calculated, out of the total time spent investigating stimuli.
# Progesterone (Prog, 0.5 mg/0.1 ml) was dissolved in corn oil and administered subcutaneously (s.c.), 4 h before test, to induce proceptive behaviour. Compound (1) (15 mg/kg, i.p.) was dissolved in 50% 2-hydroxypropyl-β-cyclodextrin in saline and administered 1 h before the i.c.v. administration. Neuromedin B was obtained from Bachem, UK. It was dissolved in isotonic saline and administered i.c.v. over a 30 sec period, with the aid of a pump set to deliver a flow of 10 μl/min, 10 min before tests. The dosing volume was 5 μl/rat. Each rat received a total amount of 100 ng.
# [2] = system: female rat sexual receptivity; assay: Female rat sexual receptivity test (lordosis quotient); assay type: in vivo; conditions: for lordosis quotient (LQ) vs LQ before administration: Compound (2) 10-100 mg/kg oral in PEG200, 1 h, quinelorane 6.25 μg/kg s.c., 90 min (FIG. 21)
# Protocol: (§1) Ovariectomised adult female Sprague Dawley rats (180-200 g, from Charles River) were housed in groups of 6 in a reversed lighting system of 12 h light:dark (lights off 7.00-19.00 h). Two weeks after ovariectomy they were used for sexual activity tests. The experiments started at least 5 h into the dark period.
# Compound (1) was dissolved in 100% β-cyclodextrin and then diluted with saline to a final solution of 50% 2-hydroxypropyl-β-cyclodextrin. It was administered intraperitoneally (i.p.) at a dose of 10 mg/kg, in a dosing volume of 1 ml/kg. Quinelorane (6.25 μg/kg) was dissolved in water and administered s.c. as positive control. Forty eight hours before testing, ovariectomised female rats (as described above), were primed with 5 μg oestradiol benzoate dissolved in corn oil and injected subcutaneously. […] The females were placed with a series of vigorous male rats and subjected to 10 mounts.
# The lordotic response of the animal was recorded and expressed as a percentage of the mounts (i.e. lordosis quotient, LQ), as previously described. Animals showing LQ<20 were considered non-receptive and were included in the study. Each rat was tested prior to administration of the compound and then tested similarly post-injection. The pre-treatment times were 1 h for Compound (1) and vehicle (50% β-cyclodextrin, i.p.) or 90 min for quinelorane.
# The above compound was dissolved in PEG200 vehicle and administered orally. Quinelorane dihydrochloride (LY 163,502, 6.25 μg/kg) was dissolved in water and administered subcutaneously (s.c.), as a positive control. Both compounds were administered in a 1 ml/kg volume.
# Forty eight hours before tests, the animals were primed with 5 μg oestradiol benzoate (Sigma Chemical. Co. Ltd., UK) dissolved in corn oil and injected subcutaneously. The females were placed with a series of vigorous male rats and subjected to 10 mounts. The lordotic response of the animal was recorded and expressed as a percentage of the mounts (i.e. lordosis quotient, LQ). […] Animals showing higher LQ were not included in the study. […]
# [3] = target: T1, human GRP receptor (BB2) (Homo sapiens, UniProt P30550); assay: BB2 binding assay ([125I][Tyr4]bombesin displacement, CHO-K1 membranes); conditions: Table 1, human GRP receptor binding affinity; Ki from IC50 by Cheng-Prusoff; read-out: GRP Kj
# T1 construct: expressed in transfected cells; membranes prepared from the cells
# Summary of the method: (§2)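 Competition against <0.1 nM [125I][Tyr4]bombesin, 60 min for the NMB receptor and 90 min for the GRP receptor, using homogenised membranes of human-receptor-expressing CHO-K1 cells in pH 7.4 Tris buffer. Bound label was filtered and gamma-counted, with 1 μM bombesin as nonspecific. Ki values came from IC50 via Cheng-Prusoff.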
# [4] = system: female rat sexual proceptivity; assay: Female rat sexual proceptivity test (time investigating male vs female stimulus); assay type: in vivo
# Protocol: as §1
# Tests were carried out in a circular arena of 90 cm diameter, surrounded by a 30 cm high wall. Two small cages with wire-mesh front (15×15 cm) are fixed into the wall such that the front of the cage is <> with the wall and the 2 cages are opposite each other. They contained two stimuli animals: an intact sexually experienced male and a receptive female (ovariectomised, primed with 5 μg oestradiol benzoate dissolved in corn oil and injected subcutaneously 48 hours before the test and with 0.5 mg of progesterone four hours before the test). Sexually naive test and control animals were used. Forty eight hours before the tests, both the test and control animals were primed with 5 μg oestradiol benzoate. For animals used as positive controls, progesterone (0.5 mg/0.1 ml) was dissolved in corn oil and administered subcutaneously (s.c.), 4 h before the test. Test and control animals were introduced one at a time for 10 minute periods into the arena. During the 10 min test, the time that the test or positive control animal spent investigating each stimulus animal was noted. The arena was thoroughly cleaned between animals. The position of the male/female stimuli boxes was randomised between animals, in order to avoid place preference. The difference in the percentage of time spent investigating the male minus the female stimuli was calculated, out of the total time spent investigating stimuli animals.
# Compound (1) was dissolved in 100% β-cyclodextrin and then diluted with saline to a final solution of 50% 2-hydroxypropyl-β-cyclodextrin. It was administered intraperitoneally (i.p.) at doses of 3 and 10 mg/kg, in a dosing volume of 1 ml/kg, 1 h before tests. Progesterone (0.5 mg/0.1 ml) was dissolved in corn oil and administered subcutaneously (s.c.), 4 h before test, as a positive control.
# Ovariectomised adult female Sprague Dawley rats (180-200 g) were housed in groups of 5 in a reversed lighting system of 12 h light:dark (lights off 5.00-17.00 h). They were used for the experiments at least two weeks after ovariectomy. Forty eight hours before tests, the animals were primed with oestradiol benzoate (5 μg/[…] in corn oil, s.c.). On day 1, progesterone (0.5 mg/0.1 ml, in corn oil, s.c.) was administered to one of the groups 4 h before tests, as a positive control. Compound (1) (15 mg/kg, i.p.) was administered in 50% 2-hydroxypropyl-β-cyclodextrin, 1 h before tests. The test lasted 10 minutes and was carried out as described before. The difference in the percentage of time spent investigating the male minus the female stimuli was calculated, out of the total time spent investigating stimuli animals. Animals were submitted to a test on day 1 and on day 15. From day 2 to 14 the Compound (1) group received a daily injection of the compound (15 mg/kg, i.p.), while both the vehicle and the progesterone groups received an injection of vehicle. On day 15 the test took place again, as described for day 1.
# Ovariectomised female rats (Sprague Dawley, obtained from Charles River, UK) were stereotaxically implanted (coordinates 0.89 mm behind Bregma, 1.3 mm lateral and 2.5 mm vertical) with stainless steel cannulae (6 mm long, O.D. 0.75 mm), held in place with dental cement. Animals were housed in groups of three and returned to a reversed lighting system of 12 h light:dark (lights off 5.00-17.00 h). Correct placement of the cannulae was assessed post-mortem. Rats were used for tests two weeks after ovariectomy (one week after cannulation). The experiments started at least 5 h into the dark period. […]
# [5] = target: T2, human NMB receptor (BB1) (Homo sapiens, UniProt P28336); assay: BB1 binding assay ([125I][Tyr4]bombesin displacement, CHO-K1 membranes); conditions: Table 1, human NMB receptor binding affinity; Ki from IC50 by Cheng-Prusoff; read-out: NMB Ki
# T2 construct: expressed in transfected cells; membranes prepared from the cells
# Summary of the method: as §2
# [6] = Plasma sexual hormone levels in ovariectomised female rats (radioimmunoassay); assay type: in vivo, rat; conditions: Compound (1) 3-10 mg/kg i.p. 1 h, progesterone 0.5 mg s.c. 4 h before blood collection
# Protocol: Ovariectomised adult female Sprague Dawley rats (180-200 g) were housed in groups of 6 in a reversed lighting system of 12 h light:dark (lights off 7.00-19.00 h). They were used for the experiments at least two weeks after ovariectomy. Forty eight hours before tests, the animals were primed with oestradiol benzoate (5 μg/0.1 ml in corn oil, s.c.). Progesterone (0.5 mg/0.1 ml, in corn oil, s.c.) was administered 4 h before blood collection, as a positive control. Compound (1) (3-10 mg/kg, i.p.) was administered in 50% 2-hydroxypropyl-β-cyclodextrin, 1 h prior to blood collection. Blood was collected from the trunk, after decapitation. It was immediately centrifuged (3500 r.p.m., 4° C., 5 min) and the plasmas frozen until assayed for hormonal content, using commercially available radioimmunoassay kits (^125I-labelled hormones) for oestradiol, progesterone, LH, FSH and prolactin.
# T1 sequence (P30550 whole entry): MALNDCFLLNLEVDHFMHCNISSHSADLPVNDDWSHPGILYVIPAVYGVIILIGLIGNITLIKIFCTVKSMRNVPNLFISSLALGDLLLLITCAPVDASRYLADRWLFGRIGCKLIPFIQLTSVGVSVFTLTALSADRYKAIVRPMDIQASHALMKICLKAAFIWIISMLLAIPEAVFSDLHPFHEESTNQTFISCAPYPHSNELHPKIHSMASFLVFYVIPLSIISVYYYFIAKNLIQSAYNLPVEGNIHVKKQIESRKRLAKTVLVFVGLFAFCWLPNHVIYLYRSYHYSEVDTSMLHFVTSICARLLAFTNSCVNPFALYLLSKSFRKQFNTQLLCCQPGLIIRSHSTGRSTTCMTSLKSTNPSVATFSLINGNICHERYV
# T2 sequence (P28336 whole entry): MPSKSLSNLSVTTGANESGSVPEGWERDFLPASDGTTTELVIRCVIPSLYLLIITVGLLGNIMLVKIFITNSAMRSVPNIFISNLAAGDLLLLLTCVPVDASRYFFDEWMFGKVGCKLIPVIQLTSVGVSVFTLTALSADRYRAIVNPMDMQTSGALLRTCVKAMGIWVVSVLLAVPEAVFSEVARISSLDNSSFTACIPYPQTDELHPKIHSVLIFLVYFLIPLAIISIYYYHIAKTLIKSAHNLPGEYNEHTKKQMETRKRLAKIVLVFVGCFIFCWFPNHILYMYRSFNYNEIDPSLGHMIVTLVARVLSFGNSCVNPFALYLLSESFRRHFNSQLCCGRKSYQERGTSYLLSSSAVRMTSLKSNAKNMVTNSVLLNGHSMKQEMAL
molecule,measurement,setting,value
neuromedin B [NMB],proceptivity (percentage of time investigating male minus female stimulus),[1],significantly reduced proceptivity
"COc1ccc(C2(CNC(=O)[C@](C)(Cc3c[nH]c4ccccc34)Nc3nc(-c4ccc([N+](=O)[O-])cc4)co3)CCCCC2)nc1 [Example 9, (S)-3-(1H-Indol-3-yl)-N-[1-(5-methoxy-pyridin-2-yl)-cyclohexylmethyl]-2-methyl-2-[4-(4-nitro-phenyl)-oxazol-2-ylamino]-propionamide]",lordosis quotient (LQ) vs LQ before administration,[2],dose-dependently (10-100 mg/kg) increased the LQ
same,MED for increase of lordosis quotient (LQ),"[2]; single oral administration, 10-100 mg/kg in PEG200, 1 h after administration",100 mg/kg
same,Ki,[3],24 nM
same,melting point,,100 to 105 °C
same,percentage of time spent investigating the male stimulus,"[4]; oral, 30-100 mg/kg in PEG 200, 1 h before test (FIG. 19)",dose-dependently (30-100) increased the percentage of time spent investigating the male stimulus
same,percentage of time spent investigating the male stimulus,"[4]; p.o., 3-30 mg/kg in 0.5% methyl cellulose, 1 h before test (FIG. 20)",dose-dependently (3-30 mg/kg) increased the percentage of time spent investigating the male stimulus
same,Ki,[5],4 nM
"CCCN1CCC[C@@H]2Cc3nc(N)ncc3C[C@H]21 [quinelorane, reference compound]",lordosis quotient (LQ) vs LQ before administration,[2],significantly (P<0.01) increased the LQ
"CC(=O)[C@H]1CC[C@H]2[C@@H]3CCC4=CC(=O)CC[C@]4(C)[C@H]3CC[C@]12C [progesterone, reference compound]",plasma levels of progesterone,[6]; vs vehicle (FIG. 6),significant increase in the progesterone plasma levels
same,plasma levels of LH,[6]; vs vehicle (FIG. 9),significant decrease in LH plasma levels
same,proceptivity on day 1 vs vehicle,"[4]; Compound (1) 15 mg/kg i.p. 1 h before test, progesterone 0.5 mg s.c. 4 h before test (FIG. 3)",stimulatory effect on proceptivity
same,proceptivity (percentage of time investigating male minus female stimulus),[1],increased the percentage of time spent investigating the male stimulus
